According to ChEMBL document CHEMBL1201862, “PubChem BioAssay data set” (2004):
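Five concentrations, 48 hours, 96-well plates. Abbreviation: GI50, concentration required for 50% inhibition of growth.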 Calls of active or inactive are those of the source. Rule as the data show it: active = GI50 up to about 1.1 µM and inactive = higher.

Experiments:
Experiment in all cases: DTP human tumour cell line panel, 48 h
OVCAR-5 = tested on: OVCAR-5
IGROV-1 = tested on: IGROV-1
DU-145 = tested on: DU-145
RXF 393 = tested on: RXF 393
SW-620 = tested on: SW-620
786-0 = tested on: 786-0
T47D = tested on: T47D
UO-31 = tested on: UO-31
HCC 2998 = tested on: HCC 2998
ACHN = tested on: ACHN
PC-3 = tested on: PC-3
SF-295 = tested on: SF-295
A549 = tested on: A549
NCI/ADR-RES = tested on: NCI/ADR-RES
CAKI-1 = tested on: CAKI-1
HCT-15 = tested on: HCT-15
SN12C = tested on: SN12C
HCT-116 = tested on: HCT-116
HOP-92 = tested on: HOP-92
SNB-19 = tested on: SNB-19
MOLT-4 = tested on: MOLT-4
SK-MEL-5 = tested on: SK-MEL-5
UACC-62 = tested on: UACC-62
OVCAR-8 = tested on: OVCAR-8
OVCAR-3 = tested on: OVCAR-3
NCI-H522 = tested on: NCI-H522
A498 = tested on: A498
SK-MEL-28 = tested on: SK-MEL-28
TK-10 = tested on: TK-10
EKVX = tested on: EKVX
SK-MEL-2 = tested on: SK-MEL-2
UACC-257 = tested on: UACC-257
HT-29 = tested on: HT-29
CCRF-CEM = tested on: CCRF-CEM
NCI-H226 = tested on: NCI-H226
RPMI-8226 = tested on: RPMI-8226
NCI-H460 = tested on: NCI-H460
Hs-578T = tested on: Hs-578T
M14 = tested on: M14
U-251 = tested on: U-251
K562 = tested on: K562
Malme-3M = tested on: Malme-3M
SK-OV-3 = tested on: SK-OV-3
NCI-H23 = tested on: NCI-H23
MDA-N = tested on: MDA-N
HL-60 = tested on: HL-60
MDA-MB-231 = tested on: MDA-MB-231
LOX IMVI = tested on: LOX IMVI
HOP-62 = tested on: HOP-62
MDA-MB-435 = tested on: MDA-MB-435
SF-539 = tested on: SF-539
MCF7 = tested on: MCF7
SF-268 = tested on: SF-268
COLO 205 = tested on: COLO 205
OVCAR-4 = tested on: OVCAR-4
KM12 = tested on: KM12
SNB-75 = tested on: SNB-75

Measured: GI50

CC(=O)NC(=O)/N=C1\NCCC(=O)N1CCc1c[nH]c2ccccc12
inactive: OVCAR-5 > 100 µM | IGROV-1 > 100 µM | DU-145 > 100 µM | RXF 393 > 100 µM | SW-620 > 100 µM | 786-0 > 100 µM | T47D > 100 µM | UO-31 > 100 µM | HCC 2998 > 100 µM | ACHN > 100 µM | PC-3 > 100 µM | SF-295 > 100 µM | A549 > 100 µM | NCI/ADR-RES > 100 µM | CAKI-1 > 100 µM | SN12C > 100 µM | HCT-116 > 100 µM | HOP-92 > 100 µM | SNB-19 > 100 µM | MOLT-4 > 100 µM | SK-MEL-5 > 100 µM | UACC-62 > 100 µM | OVCAR-8 > 100 µM | OVCAR-3 > 100 µM | NCI-H522 > 100 µM | A498 > 100 µM | SK-MEL-28 > 100 µM | TK-10 > 100 µM | EKVX > 100 µM | SK-MEL-2 > 100 µM | UACC-257 > 100 µM | HT-29 > 100 µM | CCRF-CEM > 100 µM | NCI-H226 > 100 µM | RPMI-8226 > 100 µM | NCI-H460 > 100 µM | Hs-578T > 100 µM | M14 > 100 µM | U-251 > 100 µM | K562 > 100 µM | Malme-3M > 100 µM | SK-OV-3 > 100 µM | NCI-H23 > 100 µM | MDA-N > 100 µM | HL-60 > 100 µM | MDA-MB-231 > 100 µM | LOX IMVI > 100 µM | HOP-62 > 100 µM | MDA-MB-435 > 100 µM | SF-539 > 100 µM | MCF7 > 100 µM | SF-268 > 100 µM | COLO 205 > 100 µM | OVCAR-4 > 100 µM | KM12 > 100 µM
> 100 µM: HCT-15

CC(=O)N(CN1C(=O)CCC1C(=O)O)c1ccc(C)cc1 (configuration not stated)
> 100 µM: HCT-15
inactive: OVCAR-5 > 100 µM | IGROV-1 > 100 µM | DU-145 > 100 µM | SW-620 > 100 µM | 786-0 > 100 µM | T47D > 100 µM | UO-31 > 100 µM | HCC 2998 > 100 µM | ACHN > 100 µM | PC-3 > 100 µM | SF-295 > 100 µM | A549 > 100 µM | NCI/ADR-RES > 100 µM | CAKI-1 > 100 µM | SN12C > 100 µM | HCT-116 > 100 µM | HOP-92 > 100 µM | SNB-19 > 100 µM | MOLT-4 > 100 µM | SK-MEL-5 > 100 µM | UACC-62 > 100 µM | OVCAR-8 > 100 µM | OVCAR-3 > 100 µM | SNB-75 > 100 µM | NCI-H522 > 100 µM | A498 > 100 µM | SK-MEL-28 > 100 µM | TK-10 > 100 µM | EKVX > 100 µM | SK-MEL-2 > 100 µM | UACC-257 > 100 µM | HT-29 > 100 µM | CCRF-CEM > 100 µM | NCI-H226 > 100 µM | RPMI-8226 > 100 µM | NCI-H460 > 100 µM | Hs-578T > 100 µM | M14 > 100 µM | U-251 > 100 µM | K562 > 100 µM | Malme-3M > 100 µM | SK-OV-3 > 100 µM | NCI-H23 > 100 µM | MDA-N > 100 µM | HL-60 > 100 µM | MDA-MB-231 > 100 µM | LOX IMVI > 100 µM | HOP-62 > 100 µM | MDA-MB-435 > 100 µM | SF-539 > 100 µM | MCF7 > 100 µM | SF-268 > 100 µM | COLO 205 > 100 µM | OVCAR-4 > 100 µM | KM12 > 100 µM
